Data: patent US11478479B2, “Dosing with an azolopyrimidine compound” (ARCUS BIOSCIENCES, INC., priority 2018, dated 2022)

How the values were obtained:
[1] = Safety and tolerability in healthy volunteers; format: in vivo, human; settings: doses of up to 150 mg
Source text: Safety and tolerability assessments will consist of adverse events (AEs), clinical laboratory, vital signs, 12-lead ECG, telemetry, physical examination, Bond and Lader Visual Analog Scale (VAS) of Mood and Alertness, and Digit Symbol Substitution Test (DSST). Assessments will be performed in accordance with the schedules of assessments.

[2] = Single ascending dose (SAD) pharmacokinetics, Compound I in plasma; format: in vivo, human
Source text: The SAD part consists of 5 groups of 8 healthy young male and female participants, gender balanced to the extent possible, receiving a single oral dose in Groups 1 to 4 or 2 doses in Group 5 of Compound I or placebo (randomized 3:1, active vs placebo, respectively). All participants in the SAD portion of the study must be fasting prior to receiving Compound I. All groups will be evaluated based on pharmacokinetic (PK), safety and tolerability prior to escalation to the next highest group or starting the MAD portion of the study.
For Groups 1 to 4, the study drug will be administered with the participant in the upright position. Study drug will be administered to participants between 08:00 and 9:00 hours in the morning. Before the morning dose, participants will be fasted overnight for at least 10 hours following a light supper on the evening before. Within a period, dosing should be at the same time each day 15 minutes. The study drug will be swallowed together with 240 mL tap water. The study drug should not be chewed. Fasting will continue for a period of 4 hours after drug administration. During fasting, no fluids are allowed except water; however, water is not allowed from 2 hours pre-dose until 1 hour post-dose. When not fasting, non-caffeinated fluids are allowed ad libitum. […]

A2aR = target: T1, A2aR (Homo sapiens, UniProt P29274); test: pCREB (marker for A2R inhibition) by flow cytometry in blood CD8+ T cells stimulated ex vivo with 5 μM NECA
T1 construct: all subjects responded to 5 μM NECA by increasing the levels of pCREB in their blood CD8+ T cells; endogenous in cells; host or cells: blood CD8+ T cells of trial subjects (ex vivo)
Source text: The assessment of pCREB (a marker for A2R inhibition) by flow cytometry will be conducted during the study.

T1 sequence (P29274 whole entry): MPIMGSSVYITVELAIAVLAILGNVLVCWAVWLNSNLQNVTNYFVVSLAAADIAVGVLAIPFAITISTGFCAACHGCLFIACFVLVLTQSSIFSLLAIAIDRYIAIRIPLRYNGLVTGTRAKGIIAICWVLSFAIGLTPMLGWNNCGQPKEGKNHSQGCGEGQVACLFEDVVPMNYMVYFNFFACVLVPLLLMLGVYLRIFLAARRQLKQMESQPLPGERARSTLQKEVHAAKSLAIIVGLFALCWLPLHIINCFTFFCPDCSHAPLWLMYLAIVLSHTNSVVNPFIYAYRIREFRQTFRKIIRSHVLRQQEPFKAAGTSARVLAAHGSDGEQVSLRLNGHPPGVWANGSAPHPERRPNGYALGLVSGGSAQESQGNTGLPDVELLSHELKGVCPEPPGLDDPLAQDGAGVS

Structure (SMILES): Cc1c(C#N)cccc1-c1cc(-c2cn(Cc3cccc(C(C)(C)O)n3)nn2)nc(N)n1 [Compound I, 3-(2-amino-6-(1-((6-(2-hydroxypropan-2-yl)pyridin-2-yl)methyl)-1H-1,2,3-triazol-4-yl)pyrimidin-4-yl)-2-methylbenzonitrile]
- safety issues [1]: no safety issues have been identified
- half-life ([2]; both sexes, human, plasma, healthy volunteers, following a single oral dose): ~20 h
- plasma levels of Compound I with increased doses ([2]; healthy volunteers, 10, 25, 75 and 150 mg, FIG. 1): dose proportional increases
- inhibition at 75 mg (A2aR; 75 mg once daily, in the presence of 5 μM NECA, projected from single-dose PK profiles, FIG. 2, read-out: expected inhibition of A2R at steady-state plasma levels): 90%
- inhibition of NECA-mediated activation of A2aR (A2aR; 150 mg, 24 hours after dosing, 5 μM NECA): approximately 90%
- pCREB response relative to the response seen pre-dose (A2aR; 150 mg, 24 hours after dosing, blood CD8+ T cells, 5 μM NECA, FIG. 3): approximately 10%
- pCREB activation signal in response to NECA (A2aR; 150 mg, two hours after dosing, blood CD8+ T cells, 5 μM NECA, FIG. 3): no detectable increase in pCREB levels
